The values that follow are results of earlier work, collected in patent publication US6703022B2, “Composition and method useful for treating colic” (Lev Laboratories, Inc., priority 1999, dated 2004).

The subject of this data set is mice. The settings on record: at certain doses.

In the case of `C=CCc1ccc(OC)cc1` [Estragole, 1-allyl-4-methoxybenzene], the “mutagenic and carcinogenic effects” value was “mutagenic and carcinogenic effects”.
